Test results: patent publication US6903113B2, “Urea substituted imidazopyridines” (3M Innovative Properties Company, priority 2000, dated 2005)

Assays:
interferon (α) = experiment: Cytokine Induction in Human Cells: interferon (α) by ELISA; assay type: cell-based; settings: human PBMC, 18 to 24 hours incubation, compounds generally tested at 30-0.014 μM; read-out: Lowest Effective Concentration Interferon
From the text: (§1) An in vitro human blood cell system is used to assess cytokine induction. Activity is based on the measurement of interferon and tumor necrosis factor (α) (IFN and TNF, respectively) secreted into culture media as described by Testerman et. al. In “Cytokine Induction by the Immunomodulators Imiquimod and S-27609”, Journal of Leukocyte Biology, 58, 365-372 (September, 1995).
(§2) Whole blood from healthy human donors is collected by venipuncture into EDTA vacutainer tubes. Peripheral blood mononuclear cells (PBMC) are separated from whole blood by density gradient centrifugation using Histopaque®-1077. Blood is diluted 1:1 with Dulbecco's Phosphate Buffered Saline (DPBS) or Hank's Balanced Salts Solution (HBSS). The PBMC layer is collected and washed twice with DPBS or HBSS and resuspended at 4×10^6 cells/mL in RPMI complete. The PBMC suspension is added to 48 well flat bottom sterile tissue culture plates (Costar, Cambridge, Mass. or Becton Dickinson Labware, Lincoln Park, N.J.) containing an equal volume of RPMI complete media containing test compound.
(§3) The compounds are solubilized in dimethyl sulfoxide (DMSO). The DMSO concentration should not exceed a final concentration of 1% for addition to the culture wells. The compounds are generally tested at concentrations ranging from 30-0.014 μM.
(§4) The solution of test compound is added at 60 μM to the first well containing RPMI complete and serial 3 fold dilutions are made in the wells. The PBMC suspension is then added to the wells in an equal volume, bringing the test compound concentrations to the desired range (30-0.014 μM). The final concentration of PBMC suspension is 2×10^6 cells/mL. The plates are covered with sterile plastic lids, mixed gently and then incubated for 18 to 24 hours at 37° C. in a 5% carbon dioxide atmosphere.
(§5) Following incubation the plates are centrifuged for 10 minutes at 1000 rpm (˜200×g) at 4° C. The cell-free culture supernatant is removed with a sterile polypropylene pipet and transferred to sterile polypropylene tubes. Samples are maintained at −30 to −70° C. until analysis. The samples are analyzed for interferon (α) by ELISA and for tumor necrosis factor (α) by ELISA or IGEN Assay
Interferon (α) concentration is determined by ELISA using a Human Multi-Species kit from PBL Biomedical Laboratories, New Brunswick, N.J. Results are expressed in pg/mL.
(§6) The table below lists the lowest concentration found to induce interferon and the lowest concentration found to induce tumor necrosis factor for each compound.

[1] = system: tumor necrosis factor (α); experiment: Cytokine Induction in Human Cells: tumor necrosis factor (α) by ELISA or IGEN Assay; assay type: cell-based; settings: human PBMC, 18 to 24 hours incubation, compounds generally tested at 30-0.014 μM; read-out: Lowest Effective Concentration Tumor Necrosis Factor
From the text: as §1, §2, §3, §4, §5
Tumor necrosis factor (α) (TNF) concentration is determined using ELISA kits available from Biosource International, Camarillo, Calif. Alternately, the TNF concentration can be determined by Origen® M-Series Immunoassay and read on an IGEN M-8 analyzer from IGEN International, Gaithersburg, Md. The immunoassay uses a human TNF capture and detection antibody pair from Biosource International, Camarillo, Calif. Results are expressed in pg/mL.
as §6

melting point [°C]	SMILES	minimal effective concentration (interferon (α)) [µM]	minimal effective concentration [1] [µM]
130 to 130.5	CCCCc1nc2c(N)nc(C)c(C)c2n1CCCCNS(C)(=O)=O [Example 2, N-[4-(4-Amino-2-butyl-6,7-dimethyl-1H-imidazo[4,5-c]pyridin-1-yl)butyl]methanesulfonamide]	0.0046	0.01
165 to 167	CCOCc1nc2c(N)nc(C)c(C)c2n1CCCCNS(C)(=O)=O [Example 8, N-{4-[4-amino-2-(ethoxymethyl)-6,7-dimethyl-1H-imidazo[4,5-c]pyridin-1-yl]butyl}methanesulfonamide]	0.04	10
